In paper PMC5471454, “Integrative approach for the analysis of the proteome-wide response to bismuth drugs in Helicobacter pylori” (Chemical Science, 2017):

Molecular target: T1, HpDnaK (Hsp70) (Helicobacter pylori, UniProt P55994)
T1 construct: gene dnaK; overexpressed and purified full-length protein; native protein in cells for CETSA
T1 sequence (P55994 2-620): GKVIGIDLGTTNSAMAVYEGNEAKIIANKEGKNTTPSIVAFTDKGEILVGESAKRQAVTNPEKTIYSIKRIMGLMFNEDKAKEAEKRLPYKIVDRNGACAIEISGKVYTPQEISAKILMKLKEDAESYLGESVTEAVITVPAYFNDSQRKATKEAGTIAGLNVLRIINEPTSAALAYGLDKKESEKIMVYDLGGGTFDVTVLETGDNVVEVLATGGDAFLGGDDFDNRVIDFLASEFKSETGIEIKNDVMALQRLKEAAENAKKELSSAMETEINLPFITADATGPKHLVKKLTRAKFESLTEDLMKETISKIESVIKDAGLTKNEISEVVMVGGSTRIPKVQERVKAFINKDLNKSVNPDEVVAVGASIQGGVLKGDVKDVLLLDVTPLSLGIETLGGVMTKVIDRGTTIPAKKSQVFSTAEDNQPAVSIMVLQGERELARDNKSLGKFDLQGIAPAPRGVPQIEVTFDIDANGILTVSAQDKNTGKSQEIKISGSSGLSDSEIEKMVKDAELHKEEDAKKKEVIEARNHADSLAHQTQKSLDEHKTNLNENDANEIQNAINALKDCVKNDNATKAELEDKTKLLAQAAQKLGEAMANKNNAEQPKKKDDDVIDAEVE
Assay: ATPase assay, released phosphate
Type: biochemical
Conditions: no CBS; rate linear within 80 min

## Nc1ncnc2c1ncn2[C@@H]1O[C@H](COP(=O)(O)OP(=O)(O)OP(=O)(O)O)[C@@H](O)[C@H]1O [ATP]
  ATPase assay, released phosphate: rates of ATP hydrolysis measured by monitoring the amounts of released free phosphate
